Assay results as given in publication PMC10889512, “Pyrimidine Schiff Bases: Synthesis, Structural Characterization and Recent Studies on Biological Activities” (International Journal of Molecular Sciences, 2024).

Key:
[1] = tested on: C. albicans 10231; assay: Antifungal activity assay, microdilution; type: cell-based, Candida albicans; details: concentration range from 0.5 µg/mL to 256 µg/mL
Procedure: (§1) In vitro antimicrobial and antifungal activity was screened using microdilution and modified Richard’s medium. The assay was performed for compounds 4a, 4b, 4c, and 4d with seven reference microbial strains from ATTC (E. coli 25922, S. aureus 43300, K. pneumoniae 700603, A. baumannii 19606, P. aeruginosa 27853, E. faecalis 29212, and C. albicans 10231).
(§2) Seven reference strains from the ATCC collection (Escherichia coli 25922, Staphylococcus aureus 43300, Klebsiella pneumoniae 13883, Acinetobacter baumannii 19606, Pseudomonas aeruginosa 27853, Enterococcus faecalis 29212, and Candida albicans 10231) were used. The assay was performed according to a modified version of Richard et al.’s protocol and ISO standards 20776-1:2019 and 16256:2021 [78, 79]. Microdilution with spectrophotometric measurement was used to calculate MIC50 (minimal inhibitory concentration which decreased the microorganisms’ viability to 50%) values. Briefly, compounds were prepared 100× concentrated in DMSO, and during the whole experiment, they were diluted to 1× with TSB. Serial dilutions of tested compounds were made directly on plates at a concentration range of 0.5 to 256 µg/mL. Microorganisms were incubated for 24 h at 37 °C (bacteria) or 25 °C (yeast) on Petri dishes with TSA. The bacteria/yeast suspensions were prepared at a density 5 × 10^5 CFU/mL (for bacteria) or 0.5–2.5 × 10^5 CFU/mL (for yeast) with TSB. Also, appropriate controls were contained in the experiment: the positive control consisted of a specific strain in TSB, and the negative control was TSB alone. To ensure that used strains were not modified and were still responding to antibacterial/antifungal compounds established by EUCAST, additional tests were conducted with levofloxacin, gentamicin, and amphotericin B. Microplates were incubated on a shaker for 24 h at 37 ± 1 °C or 25 ± 1 °C for the bacteria and yeast strains, respectively. After the incubation, spectrophotometric measurement was performed at 580 nm. MIC50 was calculated by comparing the results obtained for experimental sets with positive controls. Next, 50 µL aliquots of 1% (m/v) TTC solution were added to each well. The plates were incubated on the shaker for 24 h at 37/25 °C. In living microbial cells, colourless TTC is converted into red formazan crystals, which allows for visual observation and MBC/MFC (minimal bactericidal/fungicidal concentration) value assessment.

[2] = tested on: A172 cells; assay: Flow cytometry annexin V/PI staining, cell death pathway, A172; type: cell-based, human; details: A172, at IC50, 6, 18 and 24 h
Procedure: (§3) To confirm the cell death pathway, another approach to flow cytometry was used. […] Annexin V is a specific PS-binding protein, and thus it is used to detect apoptotic cells. Very few events could be observed in the first and the second quadrant, which represent apoptotic cells. Most events occurred in the third and the fourth quadrant, where unstained and necrotic cells were located. The 24 h measurements after both flow cytometry approaches were consistent with each other. […] Two approaches for flow cytometry were used—FDA/PI staining to determine cell viability and annexin V/PI staining for cell death pathway determination. For cell death pathway determination, cells were plated in 6-well plates at a density of 3 × 10^5 cells/well. […] After 6, 18, and 24 h incubation, adhered and floating cells were harvested, centrifuged at 1600 rpm, and washed with PBS. Next, the cells were washed with 1× annexin-binding buffer, and after centrifugation, cells from each test set were suspended in 100 µL of 1× annexin-binding buffer. To each tube, 5 µL of Alexa Fluor 488-annexin V stain was added, and the cells were incubated in the dark. After 15 min incubation, the cells were centrifuged at 1600 rpm to remove the dye, then suspended in 1 mL of 1× binding buffer and kept on ice. Prior to analysis, cells were stained for 2 min with 1 µM PI. […]

[3] = tested on: CaCo-2; assay: Neutral red uptake assay on CaCo-2; type: cell-based; details: Homo sapiens; CaCo-2, 72 h treatment
Procedure: Based on the results obtained for the RPTEC cell line, the following concentrations of 4b–d were chosen to be applied to neoplastic cell lines: 0.1, 1, 10, 25, 50, and 100 µM. A172, AGS, CaCo-2, HeLa, and HepG2 cancer cell lines were used to perform a neutral red uptake assay. The obtained results were compared with a negative control (cell lines incubated without tested compounds), and half-maximal inhibitory concentration (IC50) values were calculated. Cell lines were plated in 96-well plates at a density of 1 × 10^4 cells/well. After 24 h incubation, which allowed the cells to attach and start to proliferate, the culture media were replaced with 4a–d dissolved in the appropriate medium at concentrations of 1, 10, 50, 100, 150 and 200 µM. […] Negative (1% DMSO in medium) and positive (1 µM staurosporine) controls were also included. Plates were incubated at 37 °C for 24, 48, and 72 h before the neutral red uptake assay. The neutral red uptake assay was performed as described by Repetto et al.. Briefly, the medium from all wells was discarded, the attached cells were washed with 100 µL PBS, and then 100 µL of neutral red working solution in medium (40 µg/mL) was added to each well. The neutral red solution was incubated overnight in the same conditions as the cells and centrifuged before being added to the cells. The plates were incubated for at least 2 h at 37 °C, 5% CO2, in a humidified atmosphere. Next, the neutral red medium was removed, and the cells were washed with 100 µL PBS. A 100 µL quantity of destain solution consisting of 50% ethanol, 1% glacial acetic acid, and deionized water was added to each well. Plates were incubated for 30 min with constant shaking on a horizontal shaker at 37 °C. Absorption was measured at 540 nm excitation. The cells’ viability was calculated by comparing results from experimental sets with negative controls according to the formula: % viability=ODtest substance−ODblind/ODnegative control−ODblind×100

[4] = tested on: E. coli 25922; assay: Antimicrobial activity assay, microdilution; type: cell-based, Escherichia coli; details: concentration range from 0.5 µg/mL to 256 µg/mL
Procedure: as §1, §2

[5] = tested on: AGS cells; assay: Flow cytometry annexin V/PI staining, cell death pathway, AGS; type: cell-based, human; details: at IC50, 6, 18 and 24 h
Procedure: as §3

- IC50 [3]: > 100 µM
Compound: Cc1nc(-c2ccccc2)nc(Nc2ccc(F)cc2)c1C=Nc1cccc(Cl)c1 [compound 4b, 5-{[(3-chlorophenyl)imino]methyl}-N-(4-fluorophenyl)-6-methyl-2-phenylpyrimidin-4-amine]
- MIC and MBC/MFC activity [1]: Neither MIC nor MBC/MFC activity was observed
- cell death pathway [2]: irreversible cell injury and necrosis
- MIC and MBC/MFC activity [4]: Neither MIC nor MBC/MFC activity was observed
- cell death pathway [5]: irreversible cell injury and necrosis
